According to the supplement of paper PMC10307832:

Assays:
Experiment in all cases: relative viability (nuclei count vs DMSO), 5 days (fraction); higher = more cells survive
DM3189 + Bortezomib = compound: C1CN(CCN1)C2=CC=C(C=C2)C3=CN4C(=C(C=N4)C5=CC=NC6=CC=CC=C56)N=C3 [DM3189] + CC(C)C[C@H](NC(=O)[C@H](Cc1ccccc1)NC(=O)c1cnccn1)B(O)O [Bortezomib] (partner 0.002 µM)
Outline: (§1)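 Relative viability equals treated-well nuclei counts divided by vehicle-well nuclei counts. Counts came from 4× images of lung cancer cell lines grown in 1536-well plates for 5 days after pin-tool dosing on the day after seeding. Dosing used one drug alone or a fixed anchor-drug dose plus five library-drug doses (not always all listed) in √10 steps, and values are medians of duplicate plates.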

DM3189 + Luminespib = compound: C1CN(CCN1)C2=CC=C(C=C2)C3=CN4C(=C(C=N4)C5=CC=NC6=CC=CC=C56)N=C3 [DM3189] + CCNC(=O)c1noc(-c2cc(C(C)C)c(O)cc2O)c1-c1ccc(CN2CCOCC2)cc1 [Luminespib] (partner 0.01 µM)
Outline: as §1

DM3189 + Foretinib = compound: C1CN(CCN1)C2=CC=C(C=C2)C3=CN4C(=C(C=N4)C5=CC=NC6=CC=CC=C56)N=C3 [DM3189] + COc1cc2c(Oc3ccc(NC(=O)C4(C(=O)Nc5ccc(F)cc5)CC4)cc3F)ccnc2cc1OCCCN1CCOCC1 [Foretinib] (partner 0.25 µM)
Outline: as §1

DM3189 + Tozasertib = compound: C1CN(CCN1)C2=CC=C(C=C2)C3=CN4C(=C(C=N4)C5=CC=NC6=CC=CC=C56)N=C3 [DM3189] + Cc1cc(Nc2cc(N3CCN(C)CC3)nc(Sc3ccc(NC(=O)C4CC4)cc3)n2)n[nH]1 [Tozasertib] (partner 0.1 µM)
Outline: as §1

DM3189 + Vorinostat = compound: C1CN(CCN1)C2=CC=C(C=C2)C3=CN4C(=C(C=N4)C5=CC=NC6=CC=CC=C56)N=C3 [DM3189] + O=C(CCCCCCC(=O)Nc1ccccc1)NO [Vorinostat] (partner 1 µM)
Outline: as §1

Cell Line | relative viability (DM3189 + Bortezomib; first compound 0.08 µM) | relative viability (DM3189 + Bortezomib; first compound 0.253 µM) | relative viability (DM3189 + Bortezomib; first compound 0.8 µM) | relative viability (DM3189 + Bortezomib; first compound 2.53 µM) | relative viability (DM3189 + Luminespib; first compound 0.08 µM) | relative viability (DM3189 + Luminespib; first compound 0.253 µM) | relative viability (DM3189 + Luminespib; first compound 0.8 µM) | relative viability (DM3189 + Luminespib; first compound 2.53 µM) | relative viability (DM3189 + Foretinib; first compound 0.08 µM) | relative viability (DM3189 + Foretinib; first compound 0.253 µM) | relative viability (DM3189 + Foretinib; first compound 0.8 µM) | relative viability (DM3189 + Foretinib; first compound 2.53 µM) | relative viability (DM3189 + Tozasertib; first compound 0.08 µM) | relative viability (DM3189 + Tozasertib; first compound 0.253 µM) | relative viability (DM3189 + Tozasertib; first compound 0.8 µM) | relative viability (DM3189 + Tozasertib; first compound 2.53 µM) | relative viability (DM3189 + Vorinostat; first compound 0.08 µM) | relative viability (DM3189 + Vorinostat; first compound 0.253 µM) | relative viability (DM3189 + Vorinostat; first compound 0.8 µM) | relative viability (DM3189 + Vorinostat; first compound 2.53 µM)
EKVX | 1.1 | 1.01 | 1.04 | 1.2 | 0.96 | 0.874 | 0.908 | 0.962 | 0.892 | 0.82 | 0.539 | 0.803 | 0.44 | 0.407 | 0.449 | 0.352 | 0.856 | 0.72 | 0.678 | 0.62
EMC-BAC-2 | 1.12 | 1.01 | 0.956 | 1.1 | 1.24 | 1.07 | 1.06 | 1.25 | 0.981 | 0.966 | 0.938 | 1.18 | 0.302 | 0.283 | 0.254 | 0.323 | 0.53 | 0.439 | 0.477 | 0.741
EPLC-272H | 1.07 | 0.86 | 0.868 | 0.831 | 0.738 | 0.317 | 0.25 | 0.281 | 0.677 | 0.67 | 0.783 | 0.59 | 0.418 | 0.252 | 0.235 | 0.253 | 0.386 | 0.517 | 0.247 | 0.402
H3255 | 1.46 | 0.812 | 0.708 | 0.801 | 1.09 | 0.957 | 0.799 | 0.951 | 1.13 | 0.936 | 0.764 | 0.85 | 0.271 | 0.604 | 0.715 | 0.762 | 1.11 | 0.826 | 0.845 | 0.89
HARA | 1.28 | 1.11 | 1.04 | 1.2 | 0.865 | 0.784 | 0.55 | 1.15 | 0.979 | 0.454 | 0.87 | 1.09 | 0.0946 | 0.0943 | 0.0953 | 0.0845 | 0.596 | 0.539 | 0.606 | 0.622
HCC-15 | 1.11 | 1 | 0.978 | 0.862 | 0.355 | 0.399 | 0.391 | 0.369 | 1.16 | 0.962 | 1 | 0.927 | 0.246 | 0.44 | 0.35 | 0.375 | 1.03 | 0.803 | 0.732 | 0.815
HCC-44 | 0.975 | 0.905 | 0.781 | 0.995 | 1.06 | 0.879 | 0.856 | 0.97 | – | – | – | – | 0.999 | 0.912 | 0.727 | 0.954 | 1.08 | 1.14 | 0.921 | 1.08
HCC-78 | 0.486 | 0.571 | 0.403 | 0.571 | – | – | – | – | 0.549 | 0.534 | 0.529 | 0.435 | 0.263 | 0.464 | 0.411 | 0.465 | 0.41 | 0.453 | 0.51 | 0.557
